Results: paper PMC7669867, “Synthesis and initial screening of lactate dehydrogenase inhibitor activity of 1,3-benzodioxole derivatives” (Scientific Reports, 2020)
Several values for one entry are separate records, joined by “and”; a condition that tells them apart may be missing. Equal values may be shown once. Read-outs that look alike come from different tables or passages of the source.

Experiments:
[1] = test system: LDHA; conditions: cited from earlier work; for LDHA inhibitory activity: at concentrations up to 1 mM
[2] = test system: human glioma U87 cells; assay: Cell viability MTT assay, U87; type: cell-based; conditions: U-87 MG, 48 h, read-out: U87 (GI50)
Description: (§1) The human pancreatic cancer cell lines, PANC-1 and MiaPaCa-2, human lung cancer A549 cells, human breast cancer MCF-7, and human glioma U87 cells were obtained from the Korean cell line bank (Seoul, Korea). The cells were cultured in Dulbecco’s Modified Eagle Medium (DMEM; ThermoFisher Scientific, Waltham, MA) supplemented with 10% fetal bovine serum (FBS; Sigma-Aldrich) and 1% penicillin/streptomycin (ThermoFisher Scientific). The cells were cultured at 37 °C in an atmosphere containing 5% CO2.
(§2) The potential cytotoxicity of compounds at different concentrations was evaluated using the MTT assay. Briefly, cancer cell lines were pre-incubated in 96-well plates with compounds for 48 h. Subsequently, MTT working solution (2 mg/mL in phosphate buffer solution) was added to each well and the plate was incubated for 4 h at 37 °C in an atmosphere containing 5% CO2. Then, the conditioned media were aspirated, and the formed formazan crystals in living cells were quantified using the microplate reader (Spectramax M2) at 540 nm. The concentrations that produce 50% cell growth inhibition (GI50) were calculated by curves constructed by the plot of cell survival by an assistant of PRISM software (GraphPad, San Diego, CA).

[3] = biological target: T1, purified recombinant human LDHB protein (Homo sapiens, UniProt P07195); assay: In vitro LDHB activity assay (NAD+ converted to NADH); type: biochemical
T1 construct: purchased Abcam
T1 sequence (P07195 whole entry): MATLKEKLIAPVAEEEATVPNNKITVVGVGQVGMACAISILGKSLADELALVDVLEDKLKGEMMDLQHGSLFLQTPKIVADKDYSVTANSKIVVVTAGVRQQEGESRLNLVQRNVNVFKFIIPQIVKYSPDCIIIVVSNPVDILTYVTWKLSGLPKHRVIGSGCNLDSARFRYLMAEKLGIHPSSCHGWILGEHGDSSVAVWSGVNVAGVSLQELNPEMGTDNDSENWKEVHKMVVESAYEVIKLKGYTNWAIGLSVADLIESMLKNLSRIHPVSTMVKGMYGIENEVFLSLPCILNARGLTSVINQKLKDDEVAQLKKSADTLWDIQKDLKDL
Description: (§3) The in vitro evaluation of the LDHA inhibitor activities of the synthesized compounds was determined by the NADH intensity decrease through oxidation in a solution of HEPES-K^+, NADH, and pyruvate at a pH = 7.2. The NADH oxidation fluorescence intensity was measured using a spectrofluorometer at 340 nm excitation and 460 nm emission wavelengths, representing the NADH-specific fluorescence spectrum. Furthermore, the in vitro evaluation of the LDHB inhibitor activity was determined as a reverse reaction, which converts lactate to pyruvate by determining the amount of NAD^+ converted to NADH using the above-mentioned spectrophotometric experimental setting (Table 2). Based on this analysis, the half-maximal inhibitory concentration (IC50) of the synthesized compounds was obtained.
In vitro analysis was determined the amount of NAD^+ converted to NADH[33]. The assay mixture composed of 100 mM Tris–HCl buffer (pH 8.0), 200 mM sodium L-lactate, 2.5 mM NAD^+, and 100 ng of purified recombinant human LDHB protein (Abcam). The fluorescence intensity of NADH was measured using a spectrofluorometer (Spectramax M2) at 340 nm as excitation wavelength and 460 nm as emission wavelength which is the specific fluorescence of NADH.

[4] = test system: human pancreatic cancer MiaPaCa-2 cells; assay: Cell viability MTT assay, MiaPaCa-2; type: cell-based; conditions: read-out: MiaPaCa-2 (GI50)
Description: as §1, §2

[5] = biological target: T2, purified recombinant human LDHA protein (Homo sapiens, UniProt P00338); assay: In vitro LDHA inhibitor activity (NADH fluorescence decrease); type: biochemical; conditions: for LDHB/LDHA: ratio of LDHB IC50 to LDHA IC50 (selectivity)
T2 construct: purchased Abcam
Description: as §3
In vitro evaluation on LDHA inhibitor activity. LDHA activity assay was performed in accordance with previous studies[16],[18]. Briefly, the various concentrations of compounds were incubated with reaction buffer containing 20 mM HEPES-K^+, 20 μM NADH, 2 mM pyruvate, and 100 ng of purified recombinant human LDHA protein (Abcam, Cambridge, UK). The fluorescence of NADH, which has an excitation wavelength of 340 nm and an emission wavelength of 460 nm, was detected using a microplate spectrofluorometer (Spectramax M2; Molecular Devices, Sunnyvale, CA).

[6] = test system: human breast cancer MCF-7; assay: Cell viability MTT assay, MCF-7; type: cell-based; conditions: read-out: MCF-7 (GI50)
Description: as §1, §2

[7] = test system: human lung cancer A549 cells; assay: Cell viability MTT assay, A549; type: cell-based; conditions: read-out: A549 (GI50)
Description: as §1, §2

[8] = test system: human pancreatic cancer PANC-1 cells; assay: Cell viability MTT assay, PANC-1; type: cell-based; conditions: read-out: PANC-1 (GI50)
Description: as §1, §2

[9] = in vitro; type: in vitro ADME, human; conditions: human, plasma
Description: (§4) Human and rat plasma (Sigma-Aldrich) are incubated at 37 °C with test compounds. During the incubation, aliquots are withdrawn at 0, 30, 120 min time points and acetonitrile solution (containing chlorpropamide) is added. After vortexing, the aliquots are centrifuged and the supernatant is withdrawn for analysis by LC–MS/MS.

[10] = in vitro; type: in vitro ADME, rat; conditions: rat, plasma
Description: as §4

[11] = biological target: T3, CYP1A2 (Homo sapiens, UniProt P05177); assay: CYP isozymes activity assay, CYP1A2; type: in vitro ADME; conditions: pooled human liver microsomes, phenacetin; ketoconazole at 0.1 µM
T3 construct: Pooled Human liver microsomes (Sigma-Aldrich; 0.25 mg/mL); tissue Sigma-Aldrich; host or cells: pooled human liver microsomes
T3 sequence (P05177 1-516): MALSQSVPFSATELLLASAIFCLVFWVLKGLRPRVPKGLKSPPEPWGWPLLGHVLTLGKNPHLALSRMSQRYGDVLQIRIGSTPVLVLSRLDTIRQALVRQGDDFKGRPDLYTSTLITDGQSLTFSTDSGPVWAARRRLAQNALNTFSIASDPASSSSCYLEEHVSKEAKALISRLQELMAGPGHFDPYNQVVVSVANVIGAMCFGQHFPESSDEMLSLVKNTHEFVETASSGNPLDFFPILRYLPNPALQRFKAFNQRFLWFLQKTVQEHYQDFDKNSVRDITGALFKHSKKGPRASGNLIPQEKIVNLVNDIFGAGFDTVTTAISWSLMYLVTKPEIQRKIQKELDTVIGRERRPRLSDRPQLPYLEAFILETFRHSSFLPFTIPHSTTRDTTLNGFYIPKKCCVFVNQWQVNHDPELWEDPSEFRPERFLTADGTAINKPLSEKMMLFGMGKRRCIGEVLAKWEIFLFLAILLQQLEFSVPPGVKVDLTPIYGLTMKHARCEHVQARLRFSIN
Description: (§5) Pooled Human liver microsomes (Sigma-Aldrich; 0.25 mg/mL), 0.1 M phosphate buffer solution (pH 7.4), the five most commonly used substrate cocktails, such as 50 µM phenacetin (CYP1A2), 10 µM diclofenac […], 100 µM S-mephenytoin (CYP2C19) 5 µM dextromethorphan (CYP2D6), and 2.5 µM midazolam (CYP3A4), and compound 10 are pre-incubated at 37 °C for 5 min, then incubated with NADPH generation system solution for 15 min. To finish the enzymatic reaction, an acetonitrile solution (containing terfenadine) is added. The reaction tubes are centrifuged and the supernatant is withdrawn for analysis by LC–MS/MS.

[12] = biological target: T4, CYP2C9 (Homo sapiens, UniProt P11712); assay: CYP isozymes activity assay, CYP2C9; type: in vitro ADME; conditions: pooled human liver microsomes, diclofenac; ketoconazole at 0.1 µM
T4 construct: Pooled Human liver microsomes (Sigma-Aldrich; 0.25 mg/mL); tissue Sigma-Aldrich; host or cells: pooled human liver microsomes
T4 sequence (P11712 whole entry): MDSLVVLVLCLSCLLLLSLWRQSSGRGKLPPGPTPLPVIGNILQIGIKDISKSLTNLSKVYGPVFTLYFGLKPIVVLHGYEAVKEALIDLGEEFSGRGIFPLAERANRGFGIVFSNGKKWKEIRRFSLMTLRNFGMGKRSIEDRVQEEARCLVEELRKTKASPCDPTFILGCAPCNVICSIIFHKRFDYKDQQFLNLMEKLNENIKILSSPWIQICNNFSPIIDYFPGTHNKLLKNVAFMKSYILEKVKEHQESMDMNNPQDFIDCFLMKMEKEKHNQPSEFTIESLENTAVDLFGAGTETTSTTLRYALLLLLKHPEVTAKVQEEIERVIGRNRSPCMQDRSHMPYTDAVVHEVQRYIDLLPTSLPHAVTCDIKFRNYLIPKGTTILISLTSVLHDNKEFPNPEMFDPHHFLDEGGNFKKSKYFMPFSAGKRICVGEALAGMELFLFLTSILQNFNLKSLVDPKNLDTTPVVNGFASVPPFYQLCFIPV
Description: as §5

[13] = biological target: T5, CYP2C19 (Homo sapiens, UniProt P33261); assay: CYP isozymes activity assay, CYP2C19; type: in vitro ADME; conditions: pooled human liver microsomes, S-mephenytoin; ketoconazole at 0.1 µM
T5 construct: Pooled Human liver microsomes (Sigma-Aldrich; 0.25 mg/mL); tissue Sigma-Aldrich; host or cells: pooled human liver microsomes
T5 sequence (P33261 whole entry): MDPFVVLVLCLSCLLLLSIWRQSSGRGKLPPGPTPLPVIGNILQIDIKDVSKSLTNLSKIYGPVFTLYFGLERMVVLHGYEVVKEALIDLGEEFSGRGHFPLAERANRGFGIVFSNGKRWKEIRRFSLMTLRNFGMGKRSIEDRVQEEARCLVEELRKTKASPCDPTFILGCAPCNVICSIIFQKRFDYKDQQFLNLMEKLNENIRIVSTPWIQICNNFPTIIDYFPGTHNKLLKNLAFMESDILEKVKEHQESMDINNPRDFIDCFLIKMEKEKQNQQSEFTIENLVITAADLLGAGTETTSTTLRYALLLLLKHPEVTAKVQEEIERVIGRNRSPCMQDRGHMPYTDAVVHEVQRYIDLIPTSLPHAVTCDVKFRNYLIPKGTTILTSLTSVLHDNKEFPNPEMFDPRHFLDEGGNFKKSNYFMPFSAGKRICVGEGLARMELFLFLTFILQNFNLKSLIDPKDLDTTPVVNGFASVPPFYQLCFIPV
Description: as §5

[14] = synthesized compounds, read-out: LDHB IC50
[15] = synthesized compounds, read-out: LDHA IC50
[16] = Homo sapiens, PANC-1, MTT, 48 h

| Compound | GI50 ([2]; MTT) [µM] | IC50 [3, 14] [µM] | GI50 ([4]; MIA PaCa-2, MTT, 48 h) [µM] | IC50 [5, 15] [µM] | GI50 ([6]; MCF7, MTT, 48 h) [µM] | GI50 ([7]; A549, MTT, 48 h) [µM] | GI50 [8, 16] [µM] | further results |
| --- | --- | --- | --- | --- | --- | --- | --- | --- |
| c1ccc2c(c1)OCO2 [1,3-benzodioxole] |  |  |  |  |  |  |  | LDHA inhibitory activity [1]: did not exhibit an LDHA inhibitory activity |
| O=C(CC(F)(F)F)OCc1ccc2c(c1)OCO2 [Compound 6] | > 1000 | 130 | > 1000 | 452 | > 1000 | > 1000 | > 1000 | LDHB/LDHA [5]: 0.29 |
| O=C(OCc1ccc2c(c1)OCO2)c1ccc([Se]c2ccccc2)cc1 [Compound 9] |  |  |  |  |  |  |  | GI50 [2]: > 1000 µM; IC50 ([3]; LDHB IC50, synthesized compounds): 1000 µM and 151 µM; GI50 ([4]; MIA PaCa-2, 48 h): 108 µM; IC50 [5]: > 1000 µM; GI50 ([6]; MCF7, 48 h): 455 µM; GI50 ([7]; A549, 48 h): 925 µM; GI50 ([8]; Homo sapiens, PANC-1, 48 h): 21.1 µM |
| CCOC(=O)[C@H](CCc1ccccc1)N[C@@H](C)C(=O)N1CCC[C@H]1C(=O)O [Enalapril] |  |  |  |  |  |  |  | remaining at 0.5 h [9]: 95%; remaining at 2 h [9]: 93.7%; remaining at 0.5 h [10]: 37.7%; remaining at 2 h [10]: 1.8% |
| COc1ncc(-c2ccc3c(Nc4cc(Oc5cc(F)cc(F)c5)cc(C(=O)O)c4)c(S(=O)(=O)NC4CC4)cnc3c2)c(OC)n1 [GSK2837808A, reference compound] |  |  |  |  |  |  |  | GI50 ([8]; MTT, 48 h): 11.3 µM |
| CC(=O)N1CCN(c2ccc(OCC3COC(Cn4ccnc4)(c4ccc(Cl)cc4Cl)O3)cc2)CC1 (stereo not drawn) [Ketoconazole, reference compound] |  |  |  |  |  |  |  | CYP1A2 isozyme activity (% of control activity) [11]: 99.1 % of control activity; CYP2C9 isozyme activity (% of control activity) [12]: 97.5 % of control activity; CYP2C19 isozyme activity (% of control activity) [13]: > 100 % of control activity |
| C[C@H](Cc1ccc2c(c1)OCO2)[C@@H](C)Cc1ccc2c(c1)OCO2 [Machilin A] |  |  |  |  |  |  |  | IC50 [1]: 84 µM |
| CCN(CC)CCOC(=O)c1ccc(N)cc1 [Procaine] |  |  |  |  |  |  |  | remaining at 5 min [9]: 1.5%; remaining at 10 min [9]: 0.4%; remaining at 0.5 h [10]: 89.8%; remaining at 2 h [10]: 52.6% |
| OCc1ccc2c(c1)OCO2 [piperonyl alcohol] |  |  |  |  |  |  |  | LDHA inhibitory activity [1]: did not exhibit an LDHA inhibitory activity |
| GNE140 [reference compound] |  |  |  |  |  |  |  | GI50 ([8]; MTT, 48 h): 11.6 µM and 11.9 µM |

More lines, main results first:

| GI50 ([2]; MTT) [µM] | IC50 [3, 14] [µM] | GI50 ([4]; MIA PaCa-2, MTT, 48 h) [µM] | IC50 [5, 15] [µM] | GI50 ([6]; MCF7, MTT, 48 h) [µM] | GI50 ([7]; A549, MTT, 48 h) [µM] | GI50 [8, 16] [µM] | Compound | further results |
| --- | --- | --- | --- | --- | --- | --- | --- | --- |
| > 1000 | 79 | > 1000 | > 1000 | > 1000 | > 1000 | > 1000 | O=C(OCc1ccc2c(c1)OCO2)c1ccc(Br)cc1 [Compound 1] |  |
| > 1000 | 151 | > 1000 | > 1000 | > 1000 | > 1000 | 269 | O=C(OCc1ccc2c(c1)OCO2)c1ccc(I)cc1 [Compound 3] |  |
| 380 | 7.87 | > 1000 | 182 | 729 | > 1000 | 203 | Nc1cccc(C(=O)OCc2ccc3c(c2)OCO3)c1 [Compound 4] | LDHB/LDHA [5]: 0.043 |
| > 1000 | > 1000 | > 1000 | 478 | > 1000 | > 1000 | 644 | O=C(OCc1ccc2c(c1)OCO2)c1ccc(F)cc1 [Compound 5] |  |
| > 1000 | > 1000 | > 1000 | 843 | > 1000 | > 1000 | 243 | O=C(OCc1ccc2c(c1)OCO2)c1ccccc1 [Compound 7] | LDHB/LDHA [5]: > 1.18 |
| > 1000 | 248 | > 1000 | > 1000 | > 1000 | > 1000 | 86.5 | Cc1ccc(C(=O)OCc2ccc3c(c2)OCO3)cc1 [Compound 8] |  |
